In brackets after ≈: the same amount, converted by molar mass. Read-outs that look alike come from different tables or passages of the source. Numbered stars: 1 amine (or outer) side, 2 acyl side, 3 side chain; on linkers, the order of the positions; unused ones are H or OH. Bridge positions count the residues as written; N and C are the ends. Side chains are listed from the residue outwards. Peptide text beside a SMILES is read from it. * marks the point of attachment. C20 diacid = O=C(O)CCCCCCCCCCCCCCCCCCC(=O)*; γGlu = O=C(O)[C@H](CCC(=O)[*:2])N[*:1]
How the values were obtained:
hCTR = molecular target: T1, hCTR (Homo sapiens, UniProt P30988); experiment: cAMP-responsive element luciferase reporter assay, human CTR; assay type: cell-based; conditions: luciferase (human receptor assay)
T1 sequence (P30988 25-474): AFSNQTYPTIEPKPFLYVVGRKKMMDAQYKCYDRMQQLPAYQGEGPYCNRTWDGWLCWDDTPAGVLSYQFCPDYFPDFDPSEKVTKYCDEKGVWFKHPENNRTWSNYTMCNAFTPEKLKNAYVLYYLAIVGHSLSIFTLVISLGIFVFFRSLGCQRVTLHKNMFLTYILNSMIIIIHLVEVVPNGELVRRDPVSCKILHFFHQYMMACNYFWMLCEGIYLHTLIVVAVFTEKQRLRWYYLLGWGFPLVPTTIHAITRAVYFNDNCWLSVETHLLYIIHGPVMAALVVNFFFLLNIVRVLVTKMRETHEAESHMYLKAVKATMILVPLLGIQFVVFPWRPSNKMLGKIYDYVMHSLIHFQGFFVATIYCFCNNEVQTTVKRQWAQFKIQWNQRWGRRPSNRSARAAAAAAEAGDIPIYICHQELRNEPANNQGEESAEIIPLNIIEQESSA

[1] = Solubility versus pH profile
[2] = ThT assay: fibril formation propensity and peptide recovery; assay type: physicochemical; conditions: for recovery: residual dissolved peptide after 45 h of shaking, centrifugation and 0.22 μm filtration, HPLC, relative to amount before stress
Experimental: The stability properties of the individual amylin analogs were assessed with respect to their propensity toward fibril formation, expressed as the time until fibril formation (measured as Lag time) and loss of dissolved peptide (assessed as Peptide Recovery). […] Samples were prepared as described previously (using the same methodology and materials) for a novel amylin-based analog candidate compound.[7]
Briefly, each compound was dissolved in 10 mM of glycylglycine buffer (pH 4.0) or HEPES buffer (pH 7.5) to a concentration of 250 μM, followed by ThT stock solution to a final concentration of 1 μM. Each solution was aliquoted into a microtiter plate (200 μL/well) sealed with a transparent adhesive sheet. Mechanical stress was applied at 37 °C incubation (960 rpm, 1 mm amplitude) with 20 min fluorescence reading intervals for 45 h (filters: excitation 444 nm; emission 485 nm). Each peptide was tested in experiments consisting of four replicas (e.g., four wells on the same plate), and the lag time of each replica was determined by visual inspection of the fluorescence-versus-time plot. For wells where no fibril formation could be detected, the lag time was set longer than the test period (>45 h). The lag time of the peptide was set to the lowest lag time of the four replicates (conservative estimate). Some of the peptides were tested in more than one experiment, and the lag time results given in Tables 6 and 9 represent the average of these experiments. The ThT time course data given in Supporting Information represent the average and SEM of each experiment.[40] After analysis, wells representing individual replicas were pooled, and the residual soluble peptide was isolated using centrifugation (20,000 g/30 min at room temperature) followed by […] filtration. The amount of residual dissolved peptide was determined using an HPLC with a flow rate of 2 mL/min at 30 °C and 215/276 nm detection. A gradient combining eluent A (7.7% w/w acetonitrile, 200 mM Na2SO4, 20 mM NaH2PO4, 20 mM Na2HPO4, pH 7.2) and eluent B (65.5% w/w acetonitrile) was applied. The amount of residual dissolved peptide was reported on a relative scale (Peptide Recovery) to the amount of dissolved peptide prior to mechanical stress.

[3] = HMWP content by size-exclusion chromatography; assay type: physicochemical; conditions: covalent dimers and polymers prior to fibril formation testing, SEC, % of total absorbance area at 215 nm
Experimental: The stability properties of the individual amylin analogs were assessed with respect to their propensity toward amyloid fibril formation. The relative amount of covalent dimers and polymers (HMWP) present prior to fibril formation testing was measured as a control for the potential inhibitory effect of HMWP on fibril formation propensity as reported elsewhere.[39]
Elution was performed under isocratic conditions with the following mobile phase prepared in Milli-Q water (Millipore A/S): 0.5 M NaCl, 10 mM sodium dihydrogen monohydrate, 5 mM ortho-phosphoric acid, 50% (v/v) 2-propanol. The amount of HMWP was determined as the absorbance area of the corresponding peaks given in percentage of the total absorbance area. The molar extinction coefficients of the molecules eluting in the HMWP fraction and the main peak was assumed to be equal.

hAMY3R = molecular target: T2, hAMY3R (Homo sapiens, UniProt O60896+P30988); experiment: cAMP-responsive element luciferase reporter assay, human AMY3R; assay type: cell-based; design: expressed in transfected cells; conditions: for EC50: luciferase (human receptor assay)
T2 sequence (P30988 25-474): T1 sequence (P30988 25-474)
T2 sequence (O60896 24-148 partner): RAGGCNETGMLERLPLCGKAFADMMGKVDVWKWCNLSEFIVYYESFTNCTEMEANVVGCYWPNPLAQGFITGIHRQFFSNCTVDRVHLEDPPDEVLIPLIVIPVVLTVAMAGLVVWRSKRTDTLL

rats = experiment: Acute food intake in rats; assay type: in vivo, rat; conditions: single sc injection of 30 nmol/kg, relative to vehicle, mean ± SEM, n = 5–7 per group

Compound: CC[C@H](C)[C@H](NC(=O)[C@@H]1CCCN1C(=O)CNC(=O)[C@H](Cc1ccccc1)NC(=O)[C@@H]1CCCN1C(=O)[C@H](CC(N)=O)NC(=O)[C@H](CO)NC(=O)[C@H](CO)NC(=O)[C@H](Cc1c[nH]cn1)NC(=O)[C@H](CCCNC(=N)N)NC(=O)[C@H](CC(C)C)NC(=O)[C@H](Cc1ccccc1)NC(=O)[C@H](CC(=O)O)NC(=O)[C@H](C)NC(=O)[C@H](CC(C)C)NC(=O)[C@H](CCCNC(=N)N)NC(=O)[C@H](CCC(N)=O)NC(=O)[C@@H](NC(=O)[C@H](C)NC(=O)[C@@H]1CSSC[C@H](NC(=O)[C@@H](N)CCCCNC(=O)CC[C@H](NC(=O)CC[C@H](NC(=O)CCCCCCCCCCCCCCCCCCC(=O)O)C(=O)O)C(=O)O)C(=O)N[C@@H](CC(N)=O)C(=O)N[C@@H]([C@@H](C)O)C(=O)N[C@@H](C)C(=O)N[C@@H]([C@@H](C)O)C(=O)N1)[C@@H](C)O)C(=O)N[C@@H](CC(C)C)C(=O)N[C@@H](CO)C(=O)N[C@@H](CO)C(=O)N[C@H](C(=O)N[C@@H](CC(N)=O)C(=O)N[C@H](C(=O)NCC(=O)N[C@@H](CO)C(=O)N[C@@H](CC(=O)O)C(=O)N[C@H](C(=O)N[C@@H](Cc1ccc(O)cc1)C(N)=O)[C@@H](C)O)C(C)C)[C@@H](C)O [Peptide 4] (H-K([γGlu-γGlu-C20 diacid])CNTATCATQRLADFLRHSSNPFGPILSSTNVGSDTY-NH2; disulfide 2-7)
- EC50 (hCTR; Tables S12 and S14, read-out: hCTR pEC50 (converted)): 0.676 nM
- EC50 (hCTR; BHK cells stably expressing hCTR and CRE-luciferase, 3 h, 37 °C, 10% FBS, read-out: hCTR EC50): 0.672 nM
- solubility kinetic ([1]; bis-tris-propane buffer, pH 6, aqueous buffer): 173 µM (≈ 788 µg/mL)
- solubility kinetic ([1]; bis-tris-propane buffer, pH 6.5, aqueous buffer): ≥ 200 µM
- solubility kinetic ([1]; bis-tris-propane buffer, pH 7, aqueous buffer): ≥ 200 µM
- solubility kinetic ([1]; bis-tris-propane buffer, pH 7.5, aqueous buffer): ≥ 200 µM
- solubility kinetic ([1]; bis-tris-propane buffer, pH 8, aqueous buffer): ≥ 200 µM
- solubility kinetic ([1]; lactate buffer, pH 4, aqueous buffer): ≥ 200 µM
- solubility kinetic ([1]; lactate buffer, pH 5, aqueous buffer): 38 µM (≈ 173 µg/mL)
- ThT, pH 7.5 lag-time ([2]; 250 μM peptide, 10 mM HEPES pH 7.5, 1 μM ThT, 37 °C, 960 rpm, 45 h, lowest of four replicas, average of experiments): 4 h
- recovery ([2]; pH 7.5): 21%
- HMWP ([3]; analogs 1–9 (pH 7.5 series)): 5%
- EC50 (hAMY3R; Tables S12 and S14, read-out: hAMY3R pEC50 (converted)): 0.269 nM
- EC50 (hAMY3R; BHK cells stably expressing hCTR+RAMP3 and CRE-luciferase, 3 h, 37 °C, 10% FBS, read-out: hAMY3R EC50): 0.267 nM
- ratio hCTR/hAMY3R (hAMY3R; ratio of luciferase EC50 values): 2.5

Compound: CC[C@H](C)[C@H](NC(=O)[C@H](C)NC(=O)CNC(=O)[C@H](Cc1ccccc1)NC(=O)[C@H](CC(N)=O)NC(=O)[C@@H]1CCCN1C(=O)[C@H](CO)NC(=O)[C@H](CO)NC(=O)[C@H](Cc1c[nH]cn1)NC(=O)[C@H](CCCNC(=N)N)NC(=O)[C@H](CC(C)C)NC(=O)[C@H](Cc1ccccc1)NC(=O)[C@H](CC(N)=O)NC(=O)[C@H](C)NC(=O)[C@H](CC(C)C)NC(=O)[C@H](CCCNC(=N)N)NC(=O)[C@H](CCC(N)=O)NC(=O)[C@@H](NC(=O)[C@H](C)NC(=O)[C@@H]1CSSC[C@H](NC(=O)[C@H](CCCCN)NC(=O)COCCOCCNC(=O)CC[C@H](NC(=O)CCCCCCCCCCCCCCCCCCC(=O)O)C(=O)O)C(=O)N[C@@H](CC(N)=O)C(=O)N[C@@H]([C@@H](C)O)C(=O)N[C@@H](C)C(=O)N[C@@H]([C@@H](C)O)C(=O)N1)[C@@H](C)O)C(=O)N1CCC[C@H]1C(=O)N[C@@H](CO)C(=O)N[C@@H](CO)C(=O)N[C@H](C(=O)N[C@@H](CC(N)=O)C(=O)N[C@H](C(=O)NCC(=O)N[C@@H](CO)C(=O)N[C@@H](CCCNC(=N)N)C(=O)N[C@H](C(=O)N[C@@H](Cc1ccc(O)cc1)C(N)=O)[C@@H](C)O)C(C)C)[C@@H](C)O [Peptide 15]
- solubility kinetic ([1]; pH 4, aqueous buffer): ≥ 200 µM
- solubility kinetic ([1]; pH 5, aqueous buffer): ≥ 200 µM
- solubility kinetic ([1]; pH 6, aqueous buffer): ≥ 200 µM
- solubility kinetic ([1]; pH 6.5, aqueous buffer): ≥ 200 µM
- solubility kinetic ([1]; pH 7, aqueous buffer): ≥ 200 µM
- solubility kinetic ([1]; pH 7.5, aqueous buffer): ≥ 200 µM
- solubility kinetic ([1]; pH 8, aqueous buffer): ≥ 200 µM
- ThT, pH 4.0 lag-time ([2]; 250 μM peptide, 10 mM glycylglycine pH 4.0, 1 μM ThT, 37 °C, 960 rpm, 45 h, lowest of four replicas, average of experiments): 27 h
- recovery ([2]; pH 4.0): 67%
- HMWP ([3]; analogs 10–21 (pH 4.0 series)): 0.7%
- Acute food intake reduction 24–48 h (rats): 0 ± 5%

Source: article PMC11284788, “NN1213 – A Potent, Long-Acting, and Selective Analog of Human Amylin” (Journal of Medicinal Chemistry, 2024)
